Reference: patent US5830994A, “Peptide derivatives of alpha-MSH and their application” (Institut Europeen De Biologie Cellulaire, priority 1993, dated 1998)

What was measured:
[1] = system: DNFB contact hypersensitivity; test: Dinitrofluorobenzene (DNFB) contact hypersensitivity test, ear thickening after topical application; type: in vivo, C57 BL/6JICO mice; settings: Example 13
From the text: Study of the Anti-allergic activity of the Peptide compounds, by the Dinitrofluorobenzene (DNFB) contact Hypersensitivity test.
Female C57 BL/6JICO mice 5 weeks old are separated into ten batches of ten animals (five per cage), with free access to water and food, subjected to a photoperiod of twelve hours of light per twenty-four hours.
The animals in batches 1 to 6 receive daily and per topical application on the shaved skin of the back, the products to be studied, dissolved in propylene glycol, in a constant volume of 50 μl and for five consecutive days.
PIII--Batches 1 - 2 - 3--2.5 μg --0.5 μg--0.1 μg--mouse/day
PIV--Batches 4 - 5 - 6 - 2.5μg--0.5 μg--0.1 μg--mouse/day
The animals of the X batch serve as controls (and receive only, 50 μl of propylene glycol per topical application for five days).
(§1) On the fifth day, thirty minutes after the last application, all the mice are sensitized with 25 μl of DNFB (2.4-Dinitro-1-FluoroBenzene (FLUKA CHEMIKA PURUM at 97% batch No. 33820890) at 2% in a 4 to 1 mixture of acetone (SDS ref. 0510) and triolein (FLUKA) applied topically over the dorsal region of shaved skin.
On the sixth day, a new sensitization is carried out by application of DNFB.
On the eleventh day, the thickness of the ears of the mice is measured with the aid of a micrometer (ROCH 0 to 25 mm in 1/100 mm) in order to obtain base values, then the ears are stimulated by topical application of 20 μl of DNFB at 0.8%.
(§2) On the twelfth day, the thickness of the ears is again measured. The mean value of thickening of the ears is established for the mice in the batches which had received the products to be studied, as well as for the mice in the control batch.
The percentage of suppression where appropriate will be expressed by the following calculation: [formula]
Comparative study of the activity of Lipoyl-Peptides and of their peptide structures on DNFB contact hypersensitivity.
The method used is that described above in Example 10.
Contact hypersensitivity induced in mice by Dinitrofluorobenzene--"DNBF"
Batch I: (DL) - Lip - Glu - His - D.homoPhe - Arg - Trp - Gly - NH2
Batch II: H - Glu - His - D.homoPhe - Arg - Trp - Gly - NH2
Batch III: Control=(DL) - Lipoic Acid
Solvent: propylene Glycol previously used as control in Example 10.
Control: dose used"DL-Lipoic-Acid"=10 ng per mouse and per day.
as §1, with “were” for “are”, “05510)” for “0510)”
as §2, with “batch. The percentage of suppression where appropriate will be expressed by the following calculation: [formula]” for “batch.”

cultured embryonic cells = test: Effects of Peptides PI and PIV on cultured embryonic cells in vitro (melanocytes, neurons, muscular cells, fibroblasts); type: cell-based
Procedure: Effects of Peptides PI and PIV on cultured embryonic cells in vitro . . . "Melanocytes - Neurons - Muscular Cells and Fibroblasts . . . " dose used 1 μg/ml (defined by dose/response trials)
1 single treatment during the innoculation of the cells or several successive treatments (renewal of the medium every 48 hours) duration of culture: 6 to 8 days
1) Counting of the melanocytes
2) Assay of melanin by HPLC and/or by spectrophotometry
Daily observation of the cultures
Ultrastructure by transmission electron microscopy.

Compound: O=C(O)CCCCC1CCSS1 (stereo not drawn) [Lipoic acid, (DL) - Lipoic Acid, reference compound]
- suppressive effect of cutaneous hypersensitivity (in words) ([1]; 10 ng per mouse and per day, in solution in Propylene Glycol): No suppressive effect

Compound: [(DL) Lip] Glu - His - D.homoPhe - Arg - Trp - Gly - NH2 [PI]
- % SUPPRESSION RELATIVE TO THE CONTROL BATCH, Left Ear ([1]; 1 ng/mouse/day): -75.40%
- % SUPPRESSION RELATIVE TO THE CONTROL BATCH, Right Ear ([1]; 1 ng/mouse/day): -75.58%
- LEFT EAR MEAN % INCREASE ([1]; 1 ng/mouse/day): 13.86%
- RIGHT EAR MEAN % INCREASE ([1]; 1 ng/mouse/day): 13.86%
- % SUPPRESSION RELATIVE TO THE CONTROL BATCH, Left Ear ([1]; 10 ng/mouse/day): -77.01%
- % SUPPRESSION RELATIVE TO THE CONTROL BATCH, Right Ear ([1]; 10 ng/mouse/day): -76.90%
- LEFT EAR MEAN % INCREASE ([1]; 10 ng/mouse/day): 12.95%
- RIGHT EAR MEAN % INCREASE ([1]; 10 ng/mouse/day): 13.01%
- % SUPPRESSION RELATIVE TO THE CONTROL BATCH, Left Ear ([1]; 100 ng/mouse/day): -79.30%
- % SUPPRESSION RELATIVE TO THE CONTROL BATCH, Right Ear ([1]; 100 ng/mouse/day): -79.45%
- LEFT EAR MEAN % INCREASE ([1]; 100 ng/mouse/day): 11.66%
- RIGHT EAR MEAN % INCREASE ([1]; 100 ng/mouse/day): 11.66%
- suppression of cutaneous hypersensitivity ([1]; 100 ng/mouse/day): 79%
- effect on precursor embryonic cells not yet determined in the melanoblastic pathway (in words) (cultured embryonic cells; 1 μg/ml): no effect
- effect on the melanoblasts already induced (in words) (cultured embryonic cells; 1 μg/ml): stimulating effect
- number of melanocytes increases by a factor (cultured embryonic cells; 1 μg/ml): ≥ 2
- toxic effect on astroglial cells (in words) (cultured embryonic cells; 1 μg/ml): No toxic effect
- toxic effect on fibroblasts, mesenchyme (in words) (cultured embryonic cells; 1 μg/ml): no toxic effect
- quantity of biosynthesized melanin per cell (cultured embryonic cells; 1 μg/ml, after eight days of culture): 1.4 ng/cell
- toxic effect on myoblasts (in words) (cultured embryonic cells; 1 μg/ml, even at an ultrastructural level): no toxic effect
- effect on melanogenesis, summary (in words) (cultured embryonic cells; qualitative and quantitative): stimulate melanogenesis
- cytotoxic effect on the various cell categories (in words) (cultured embryonic cells; summary): no cytotoxic effect
- stimulating effect on the other cell types: neurons, astrocytes, muscle cells, fibroblasts (in words) (cultured embryonic cells; summary): without stimulating effect
